From PubChem BioAssay AID977621 (Broad Institute, 2014)
Inconclusive results are not listed. Active and inactive are the calls of the source.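 The calls were made as follows: active = Wild-type ribosome reporter drop at least double the humanized mutant ribosome reporter drop, growth loss under a set limit; inconclusive = no clear call, values can overlap the other calls; inactive = the rest.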

System: E. coli wild-type GFP strain growth, fluorescence, 24 h
Experiment: growth inhibition of wild-type GFP E. coli, dose response, H69 mutant RFP, cherry-pick (AID 977621);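 also: wild-type GFP and H69 mutant RFP strains grown together 50/50 in each well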
[1] = E. coli mixed culture, 24 h, measured here: total growth OD600, test 2

Row | Structure (SMILES) | AC50 [1] [µM] | AC50 | AC50 (measured here: total growth OD600, test 2) [µM]
1 | O=C(O)c1cc(-c2ccc(Cl)s2)nc2ccccc12 | > 100 |  | 
2 | COc1cc(CO)cc(Br)c1OCC(=O)Nc1cccc2ccccc12 |  | > 100 µM (inactive) | 
3 | Cc1ccsc1C(=O)C1CCCN(Cc2cc(F)ccc2-n2cccn2)C1 (centres undefined) | > 100 |  | 
4 | N#Cc1ccc(-c2ccc(C3[C@H]4CNC[C@@H]3N4S(=O)(=O)c3ccc(-c4ccccc4)cc3)cc2)cc1 (some centres undefined) | > 100 |  | 
5 | COc1ccccc1CCNC(=O)c1cccc(NC(=O)CC2SC(N3CCCCC3)=NC2=O)c1 (centres undefined) |  | > 100 µM (inactive) | 
6 | CCOc1ccc(CCNC(=O)CCc2nc3ccccc3[nH]2)cc1OCC | > 100 | > 100 µM (inactive) | 
7 | O=C1NC(=O)C2(Cc3cc([N+](=O)[O-])ccc3N3CCN(C(=O)c4ccccc4)CC32)C(=O)N1 (centres undefined) |  | > 100 µM (inactive) | 
8 | Cc1cc(NC(=O)CN2CCN(c3cccc(Cl)c3)CC2)no1 |  | > 100 µM (inactive) | 
9 | CCOC(=O)Cc1csc(SCC(=O)Nc2cc(C)ccc2OC)n1 | > 100 | > 100 µM (inactive) | 
10 | OCCCc1cn(-c2ccccc2)c2ccccc12 |  | > 100 µM (inactive) | 
11 | Nc1nn(-c2ccccc2)c2ccc([N+](=O)[O-])cc12 |  | > 100 µM (inactive) | 
12 | Cc1cccc(-c2ccc([C@@H]3[C@@H](CO)N4CCCCN(S(=O)(=O)c5ccccc5C)C[C@H]34)cc2)c1 | 48.8 |  | 
13 | COc1cc2nc(Nc3ccc(F)cc3)nc(N)c2cc1OC |  | > 100 µM (inactive) | 
14 | O=C(Cc1coc2cc(O)ccc12)N1CCN(S(=O)(=O)c2ccc(Br)cc2)CC1 | 42.2 | > 100 µM (inactive) | 
15 | COc1ccc(C2CC(=O)Oc3cc(C)cc(C)c32)cc1 (centres undefined) | > 100 |  | 
16 | CCc1ccc2nc(N(CCCN(C)C)C(=O)c3ccc4c(c3)OCCO4)sc2c1 |  | > 100 µM (inactive) | 
17 | N#CCC(=O)Nc1ccc(C(=O)OCC(=O)Nc2ccc3ccccc3c2)cc1 |  | > 100 µM (inactive) | 
18 | COc1ccc(CCNc2nc(-c3ccncc3)cs2)cc1OC |  | > 100 µM (inactive) | 
19 | O=C(O)c1ccc(Oc2ccc([N+](=O)[O-])cc2)c([N+](=O)[O-])c1 |  | > 100 µM (inactive) | 
20 | CCOC(=O)c1nc(C)sc1-c1ccnn1S(=O)(=O)c1cccc(Cl)c1 | 45.7 | > 100 µM (inactive) | 
21 | CCOC(=O)c1cc2sccc2n1CCCN1C(=O)c2ccccc2C1=O | > 100 | > 100 µM (inactive) | 
22 | Cc1ccccc1OCc1nc2ccccc2n1C |  | > 100 µM (inactive) | 
23 | N#Cc1cccc(-c2ccc3c(c2)[C@H]2[C@H](CCN2C(=O)c2ccccc2F)[C@H](CO)N3)c1 |  | > 100 µM (inactive) | 

Row | Structure (SMILES) | AC50 [1] [µM] | AC50 | AC50 (measured here: total growth OD600, test 2) [µM]
24 | Nc1c(C(=O)NCCN2CCOCC2)c2nc3ccccc3nc2n1Cc1ccccc1 |  | > 100 µM (inactive) | > 100
25 | CSCCC(=O)Nc1nc(-c2ccccn2)cs1 |  | > 100 µM (inactive) | 
26 | Cc1ccc(C2NC(c3ccc(C)cc3)C(C)C(=O)C2C)cc1 (centres undefined) | 47.8 |  | 
27 | Cc1cccc(CN2C(=O)c3ccccc3Sc3ccc(C(=O)O)cc32)c1 |  | > 100 µM (inactive) | 
28 | Cc1cc(C)c(OCC(=O)OCC(=O)N2CCc3ccccc3C2)c(C)c1 | > 100 | > 100 µM (inactive) | 
29 | CCOc1ncccc1C(=O)OCC(=O)NCCCc1ccccc1 | > 100 |  | 
30 | COc1ccc(OC)c(-c2nnc3n2N=C(c2ccc(OC)c(OC4CCOC4)c2)CS3)c1 (centres undefined) | > 100 | > 100 µM (inactive) | 
31 | Cc1ccccc1CSCC(=O)Nc1ccccc1F |  | > 100 µM (inactive) | 
32 | CCOC(=O)C1CCCN(C(=O)c2csc(-c3ccc4c(c3)CCO4)n2)C1 (centres undefined) |  | > 100 µM (inactive) | 
33 | O=C(NCc1nnnn1-c1ccc(Cl)cc1)c1ccc([N+](=O)[O-])o1 |  | > 100 µM (inactive) | 
34 | Cc1c(Cc2ccccc2)sc(NC(=O)C(C)(C)C)c1C(N)=O | 50.6 | > 100 µM (inactive) | 
35 | CCC(=O)Nc1nc2c(OC)ccc(OC)c2s1 | > 100 |  | 
36 | O=C(CCc1nc2ccccc2s1)OCC(=O)c1ccc[nH]1 |  | > 100 µM (inactive) | 
37 | Cc1noc(C)c1NC(=O)Nc1ccc2c(c1)C(=O)N([C@@H](C)CO)C[C@H](C)[C@H](CN(C)C(=O)Nc1ccc3c(c1)OCO3)OCCCC[C@H](C)O2 |  | > 100 µM (inactive) | 
38 | CCC(=O)c1ccc(OCC(=O)Nc2nc(C)cs2)cc1 | > 100 | > 100 µM (inactive) | 
39 | Cc1cc(NC(=O)COC(=O)CSCc2ccc(Cl)c(Cl)c2)no1 | > 100 | > 100 µM (inactive) | 
40 | Cc1cc(NCc2ccccn2)n2nc(C)c(-c3ccccc3)c2n1 | 49.3 |  | 
41 | CCCCC(=O)N1CCN(c2nc3ccc(Br)cc3s2)CC1 | 31 | > 100 µM (inactive) | 
42 | CN(C)S(=O)(=O)N1CCN(c2ccccc2Cl)CC1 | > 100 |  | 
43 | Cc1ccc(NC(=O)c2ccc([N+](=O)[O-])o2)c(C)c1 |  | > 100 µM (inactive) | 
44 | Cc1ccc(OCC(O)CN2CCN(c3ccccn3)CC2)c(C)c1 (centres undefined) | 45.6 | > 100 µM (inactive) | 
45 | S=c1[nH]nc(-c2ccc(Br)cc2)n1-c1ccc2c(c1)OCCO2 |  | > 100 µM (inactive) | 
46 | O=C(Nc1cc(S(=O)(=O)N2CCCCC2)ccc1N1CCCCC1)C1CC1 | > 100 |  | 

Row | Structure (SMILES) | AC50 [1] [µM] | AC50 | AC50 (measured here: total growth OD600, test 2) [µM]
47 | COc1cccc(NC(=O)COC(=O)Cc2ccc(Cl)cc2)c1 | > 100 |  | 
48 | CSC1=NCCN1C(=O)Cc1ccc(-c2ccccc2)cc1 | 48.3 | > 100 µM (inactive) | 
49 | Cc1ccc(C#N)c(SCc2ccccc2F)n1 | 34.2 | > 100 µM (inactive) | 
50 | COc1ccc(OCC2c3cc(OC)c(OC)cc3CCN2C(=O)C(C)C)cc1 (centres undefined) |  | > 100 µM (inactive) | 
51 | NS(=O)(=O)c1cccc(NC(=O)CSc2nnc(-c3ccccc3F)n2C2CC2)c1 |  | > 100 µM (inactive) | 
52 | CC(C)(C)c1ccc(N2C(=O)CSC2c2cccnc2)cc1 (centres undefined) | > 100 |  | 
53 | COc1ccc(CCCc2nc3ccccc3[nH]2)cc1 | > 100 |  | 
54 | C[C@@H]1CN([C@H](C)CO)C(=O)c2cccc(NC(=O)c3ccncc3)c2O[C@@H]1CN(C)S(=O)(=O)c1ccc(Cl)cc1 | > 100 | > 100 µM (inactive) | 
55 | Cc1ccc(C(=O)OCC(=O)c2c[nH]c3ccccc23)cc1NC(=O)c1ccco1 |  | > 100 µM (inactive) | 
56 | COc1cc2cc(C(=O)Nc3ccc4c(c3)OCCO4)[nH]c2cc1OC | > 100 |  | 
57 | Cc1cc(C)nc(SCc2cn3c(C)cccc3n2)n1 |  | > 100 µM (inactive) | 
58 | O=C(Cc1ccc(NC(=O)C2CCCN(C(=O)CCc3ccccc3)C2)cc1)Nc1cccc(C(=O)N2CCCC2)c1 (centres undefined) | > 100 | > 100 µM (inactive) | 
59 | COCc1cc(C)nc(SCC[N+](C)(C)CC(=O)c2ccc(Br)cc2)c1C#N |  | > 100 µM (inactive) | 
60 | S=c1[nH]c2cc(Cl)ccc2s1 |  | > 100 µM (inactive) | 
61 | NS(=O)(=O)c1cccc(NC(=O)CSc2nc3ccccc3n2-c2ccccc2)c1 | 40.3 | > 100 µM (inactive) | 
62 | COC(=O)[C@H](Cc1c[nH]c2ccccc12)NCc1cccc(B(O)O)c1 | > 100 | > 100 µM (inactive) | 
63 | CC1CCCC(NC(=O)COC(=O)[C@@H]2CC(O)CN2S(=O)(=O)c2ccc3c(c2)OCCO3)C1C (some centres undefined) | > 100 |  | 
64 | CCOC(=O)c1cc(C)nc(N2CCCCC2)c1C#N | > 100 |  | 
65 | C[C@@H]1CCCCO[C@@H](CN(C)C(=O)c2ccccc2)[C@H](C)CN([C@@H](C)CO)C(=O)c2cc(NC(=O)Cc3ccccc3)ccc2O1 | > 100 | > 100 µM (inactive) | 
66 | CC(C)N1CC2(CC(c3ccccc3C(F)(F)F)=NO2)CN1C(=O)c1ccco1 (centres undefined) |  | > 100 µM (inactive) | 
67 | C[C@@H]1CN([C@H](C)CO)C(=O)c2cccc(NC(=O)Nc3ccc4c(c3)OCO4)c2O[C@@H]1CN(C)C(=O)Nc1ccc2c(c1)OCO2 | > 100 |  | 
68 | CSc1nc(SC(C)C(=O)O)c2c3c(sc2n1)COC(C)(C)C3 (centres undefined) |  | > 100 µM (inactive) | 
69 | Cc1ccc(NC(=O)C[n+]2cc(-c3ccccc3)n3c2CCC3)cc1 | > 100 |  | 

Row | Structure (SMILES) | AC50 [1] [µM] | AC50 | AC50 (measured here: total growth OD600, test 2) [µM]
70 | O=C1CSC(c2cccnc2)N1Cc1ccc(Cl)c(Cl)c1 (centres undefined) | > 100 | > 100 µM (inactive) | 
71 | CCOc1ccccc1N1CC(C(=O)Nc2cccc(S(=O)(=O)N3CCCCC3)c2)CC1=O (centres undefined) | > 100 |  | 
72 | CCOc1ccccc1OCCCC(=O)N1CCN(S(=O)(=O)c2cc(F)ccc2F)CC1 |  | > 100 µM (inactive) | 
73 | CC(=O)Nc1ccc(-c2ccnc3c2CC(C)(C(=O)Nc2ccc4c(c2)OCO4)O3)cc1 (centres undefined) | > 100 |  | 
74 | O=C1C(c2ccccc2)c2ccccc2N1Cc1ccccc1 (centres undefined) |  | > 100 µM (inactive) | 
75 | O=C(CSc1ccc(-c2cccnc2)nn1)N1CCCc2ccccc21 | > 100 | > 100 µM (inactive) | 
76 | Cc1cc(-c2ccc(C)c(S(=O)(=O)NC(C)Cc3ccco3)c2)on1 (centres undefined) | 31 | > 100 µM (inactive) | 
77 | CCC(=O)Nc1sc(Cc2ccc3c(c2)OCO3)c(C)c1C(N)=O | 51.4 | > 100 µM (inactive) | 
78 | CCc1cc2c(NC(Cc3c[nH]c4ccccc34)C(=O)O)nc(C)nc2s1 (centres undefined) |  | > 100 µM (inactive) | 
79 | Cc1[nH]nc2c1C(c1ccc(F)cc1)N(Cc1ccccc1)C2=O (centres undefined) |  | > 100 µM (inactive) | 
80 | COc1ccc(OC)c(NC(=O)c2c3c(nc4ccccc24)CCC3)c1 |  | > 100 µM (inactive) | 
81 | COc1ccc(CN(CC(O)COCc2ccccc2)S(=O)(=O)c2ccccc2Br)cc1OC (centres undefined) | 28.5 | > 100 µM (inactive) | 
82 | O=C(COc1cc(F)ccc1[N+](=O)[O-])NCCCc1ccccc1 | > 100 |  | 
83 | CCn1nnc(NC(=O)c2ccc([N+](=O)[O-])o2)n1 |  | > 100 µM (inactive) | 
84 | Cc1ccc2nc(SCC(=O)c3ccc(O)cc3O)[nH]c2c1 |  | > 100 µM (inactive) | 
85 | COc1ccc(NS(=O)(=O)c2cccc3ccccc23)cc1 | 33.7 |  | 
86 | COc1ccc(C(=O)COC(=O)c2ccccc2O)c(OC)c1 |  | > 100 µM (inactive) | 
87 | CSc1nc(SCCN(C)C)c2c3c(sc2n1)COC(C)(C)C3 | > 100 | > 100 µM (inactive) | 
88 | O=C(Nc1cccc(Cl)c1)N1C[C@H]2[C@@H](c3ccccc31)[C@H](CO)N2CC1CCCCC1 |  | > 100 µM (inactive) | 
89 | NC(=O)c1cc(NC(=O)c2cc(Br)c(Br)s2)cc(C(N)=O)c1 |  | > 100 µM (inactive) | 
90 | O=C(CSc1ccncc1)Nc1ccc2ccccc2c1 | 30 | > 100 µM (inactive) | 
91 | O=C(NCCCCc1ccccc1)c1cccc(NC(=O)C2CCCCC2)c1 | 46.8 | > 100 µM (inactive) | 
